In patent US20140050778A1, “NUCLEIC ACID BINDING COMPOUNDS, METHODS OF MAKING, AND USE THEREOF” (UNIVERSITY OF ROCHESTER, priority 2010, published 2014):
Like-named read-outs stand apart in the source and are kept apart here.

What was measured:
Test in all cases: SPR binding to immobilized biotinylated RNA
[1] = tested on: (CUG)10 RNA (SEQ ID NO: 3); conditions: (CUG)10; for improvement in affinity relative to compound 1: SPR KD versus filter-binding KD of compound 1
[2] = tested on: (CAG)10 RNA (SEQ ID NO: 5); conditions: for Off-rates (koff) / On-rates (kon): SPR
Protocol: (§1) SPR binding measurements were performed on a Biacore-X instrument (Biacore, Inc., Uppsala, Sweden) with two flow channels (FC1 and FC2). 5′-Biotinylated-RNA sequences, with a C6 linker separating the biotin label from the RNA (Integrated DNA Technologies Inc.) were immobilized on streptavidin (Rockland Immunochemicals) functionalized carboxylmethyl dextran coated sensor chips (CM5, G.E. Healthcare) using EDC/NHS (Advanced ChemTech) coupling chemistry. Filtered (0.2μ), degassed and autoclaved HBS-N buffer (0.01M Hepes, pH=7.4, 0.15 M NaCl) was employed as sample and as running buffer for all SPR experiments. A typical protocol for an experiment is as follows: A CM5 sensor chip was allowed to equilibrate to room temperature and then docked into the instrument. Following priming with running buffer, FC1 and FC2 were conditioned by manual injection of 20 μL aqueous NaOH (50 mM) at a flow rate of 30 μL/min. This was repeated 3 times followed by a wash command. Next, the carboxyl groups on the sensor chip surface in both flow cells were activated separately by injecting 60 μL of freshly prepared 1:1 mixture of EDC (0.4 M) and NHS (0.1 M) at a 5 μL/min flow rate followed by a wash. […] After washing, the surface was deactivated with 60 μL injection of ethanolamine (1M, pH=8.5) at 5 μL/min. The flow cells were primed, and the streptavidin surface in FC1 alone was blocked with 30 μL of biotin (20 μM in HBS-N) at 5 μL/min. The RNA (200 nM in running buffer, HBS-N) to be immobilized was unfolded by heating above its predicted melting temperature in a heated block for 2 min and then allowed to refold by cooling gradually to room temperature. The RNA was then immobilized in FC2 alone to response units ranging from 200-1000 RU using a 5 μL/min flow rate. Representative sensorgrams for the immobilization procedure is shown in FIGS. 2A-B. Two 20 μL aliquots of NaCl (0.5 M) were injected at a 30 μL/min flow rate to remove non-specifically bound RNA. The level of RNA immobilized was noted when the baseline was stable, usually after repeated buffer injection followed by a “prime” command. Binding measurements were performed by flowing various concentrations of the compounds to be analyzed over the immobilized RNA and recording the reference-subtracted (FC2−FC1) sensorgrams. For kinetic analysis, at least five sensorgrams corresponding to different concentrations of compound (usually ranging from 0.05-1 μM in HBS-N) were obtained using flow rates of either 60 μL/min or 30 μL/min. The experimental sensorgrams were globally fitted to a 1:1 binding equation (Biaevaluation software) to obtain association rates (ka) and dissociation rates ([…]) as well as equilibrium binding constants (KD). To measure the binding stoichiometry (n), the relations in equations (1-3) below were used: […]
(§2) where RUmax is the maximum resonance response unit at saturation, RURNA is the amount RU of RNA immobilized, n is the stoichiometry, MWcompound and MWRNA are molecular weights of compound and RNA respectively, and RUeq represents the resonance response at steady-state (equilibrium). The response units at equilibrium were subjected to Scatchard binding plots of (r/Cfree vs. r).
(§3) The binding characteristics of compounds 3-11 were evaluated against pathogenic CUG^exp RNA and other RNA sequences by SPR. This technique allows the association and dissociation rates (ka and kd), equilibrium binding constants (KD), and the binding stoichiometry (n) to be measured in a label-free format (Liu and Wilson, “Quantitative Analysis of Small Molecule-nucleic Acid Interactions with a Biosensor Surface and Surface Plasmon Resonance Detection,” Methods Mol. Biol. 613:1-23 (2010), which is hereby incorporated by reference in its entirety). […]

[3] = tested on: (CCUG)10 RNA (SEQ ID NO: 4); conditions: (CCUG)10; for Off-rates (koff) / On-rates (kon): SPR
Protocol: as §1, §2, §3

[4] = tested on: (CUG)2 RNA (SEQ ID NO: 1); conditions: for Off-rates (koff) / On-rates (kon): SPR; for ka / kd: Table 7, SPR
Protocol: as §1, §2, §3

[5] = tested on: (CUG)4 RNA (SEQ ID NO: 2); conditions: for Off-rates (koff) / On-rates (kon): SPR
Protocol: as §1, §2, §3

[6] = tested on: CUG-CAG duplex ("Duplex") (SEQ ID NO: 6); conditions: for Residence time (t1/2) for compound binding to RNA / Off-rates (koff) / On-rates (kon): Duplex
Protocol: as §1, §2, §3

[7] = tested on: HIV-1 FSS RNA (SEQ ID NO: 7)
Protocol: as §1
where RUmax is the maximum resonance response unit at saturation, RURNA is the amount RU of RNA immobilized, n is the stoichiometry, MWcompound and MWRNA are molecular weights of compound and RNA respectively, and RUeq represents the resonance response at steady-state (equilibrium). The response units at equilibrium were subjected to Scatchard binding plots of (r/Cfree vs. r). […]
SPR and fluorescence titration experiments, performed using the protocol described in Examples 3 and 4 above, except using as the target a highly conserved RNA sequence responsible for regulating the production of the Gag-Pol polyprotein via a −1 ribosomal frameshift, which occurs along a “slippery sequence” in gag-pol mRNA (SEQ ID NO: 7). This “frameshift stimulatory sequence” (or “HIV-1 FSS”) consists of an upper stemloop and a lower stem, separated by a purine bulge in the most common types of HIV (FIG. 19). For the fluorescent titration experiments, the upper stemloop of SEQ ID NO: 7 was employed. Cell uptake and toxicity studies were carried out using human fibroblasts according to Example 5 above.

| Structure (SMILES) | Residence time (t1/2) for compound binding to RNA [1] | improvement in affinity relative to compound 1 [1] | Off-rates (koff) ([1]; SPR) | On-rates (kon) ([1]; SPR) | Kd ([1]; SPR, read-out: apparent KD) | ka ([1]; Table 7, SPR) | kd ([1]; Table 7, SPR) | Kd ([1]; Table 7, SPR, read-out: KD) | Residence time (t1/2) for compound binding to RNA [2] | Off-rates (koff) [2] | On-rates (kon) [2] | Residence time (t1/2) for compound binding to RNA [3] | Off-rates (koff) [3] | On-rates (kon) [3] | Residence time (t1/2) for compound binding to RNA [4] | Off-rates (koff) [4] | On-rates (kon) [4] | ka [4] | kd [4] | Residence time (t1/2) for compound binding to RNA [5] | other results |
| --- | --- | --- | --- | --- | --- | --- | --- | --- | --- | --- | --- | --- | --- | --- | --- | --- | --- | --- | --- | --- | --- |
| CCc1nc2cc3ccccc3cc2cc1C(=O)N1CCC[C@H]1C(=O)N[C@@H](C/C=C/C[C@H](NC(=O)[C@@H]1CCCN1C(=O)c1cc2cc3ccccc3cc2nc1CC)C(=O)N[C@@H](CCCCN)C(=O)NCCCN)C(=O)N[C@@H](CCCCN)C(=O)NCCCN [Compound 5] | 4.6762 min | roughly 50 fold | 0.00247 s⁻¹ | 28400 M⁻¹ s⁻¹ | 88.2 ± 0.28 nM | ka = 2.84E+4/M * s | kd = 2.47E−3/s | 88 nM | 4.2308 min | 0.00273 s⁻¹ | 50200 M⁻¹ s⁻¹ | 11.702 min | 0.000987 s⁻¹ | 49700 M⁻¹ s⁻¹ | 15.02 min | 0.000769 s⁻¹ | 20100 M⁻¹ s⁻¹ | ka = 2.01E+4/M * s | kd = 7.69E−4/s | 8.3093 min | Off-rates (koff) [5]: 0.00139 s⁻¹; On-rates (kon) [5]: 30100 M⁻¹ s⁻¹; Residence time (t1/2) for compound binding to RNA [6]: 3.0078 min; Off-rates (koff) ([6]; SPR): 0.00384 s⁻¹; On-rates (kon) ([6]; SPR): 15000 M⁻¹ s⁻¹; Residence time (t1/2) for compound binding to RNA [7]: 2.939 min |
| CCc1nc2cc3ccccc3cc2cc1C(=O)N1CCC[C@H]1C(=O)N[C@@H](C/C=C\C[C@H](NC(=O)[C@@H]1CCCN1C(=O)c1cc2cc3ccccc3cc2nc1CC)C(=O)N[C@@H](CCCCN)C(=O)NCCCN)C(=O)N[C@@H](CCCCN)C(=O)NCCCN [Compound 4] | 9.7882 min | roughly 50 fold | 0.00118 s⁻¹ | 27800 M⁻¹ s⁻¹ | 45 ± 3.3 nM | ka = 2.78E+4/M * s | kd = 1.18E−3/s | 45 nM | 3.9965 min | 0.00289 s⁻¹ | 35600 M⁻¹ s⁻¹ | 6.2772 min | 0.00184 s⁻¹ | 60100 M⁻¹ s⁻¹ | 13.08 min | 0.000883 s⁻¹ | 24500 M⁻¹ s⁻¹ | ka = 2.45E+4/M * s | kd = 8.83E−4/s | 7.0858 min | Off-rates (koff) [5]: 0.00163 s⁻¹; On-rates (kon) [5]: 42400 M⁻¹ s⁻¹; Residence time (t1/2) for compound binding to RNA [6]: 7.549 min; binding to duplex CUG-CAG stronger than the E isomer, compound 5 ([6]; SPR): approximately 5.7 fold; Off-rates (koff) ([6]; SPR): 0.00153 s⁻¹; On-rates (kon) ([6]; SPR): 29500 M⁻¹ s⁻¹; Residence time (t1/2) for compound binding to RNA [7]: 0.7548 min; Off-rates (koff) ([7]; SPR): 0.0153 s⁻¹; On-rates (kon) ([7]; SPR): 11300 M⁻¹ s⁻¹; Kd ([7]; SPR, read-out: apparent KD): 1242.5 ± 0.6 nM |
